Assay results from the METLIN SMRT retention time set (Domingo-Almenara et al. 2019).

Experiment: gradient 5% acetonitrile 3 min, to 50% in 2 min, to 85% in 15 min, held 3 min, 100 µL/min
Details: column: Zorbax Extend-C18 2.1 x 50 mm; eluents: water / acetonitrile, 0.1% formic acid
How it was run: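 The system's dead and dwell volumes were 40 μL and 900 μL, with a Zorbax Extend-C18 column (2.1 × 50 mm, 1.8 μm) run at 100 μL/min in water and acetonitrile containing 0.1% formic acid each. Pure standards were analyzed in mixtures of ~100 molecules by HPLC–quadrupole time-of-flight mass spectrometry in positive and negative ionization mode. Retention time was assigned from computationally picked, manually inspected adduct peaks.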

RP-LC retention time [s] | Structure (SMILES)
768 | CCC(C(=O)NCC1CCCO1)n1c2ccccc2c2cnn(C)c(=O)c21 (centres undefined)
721 | Cc1cccc(-c2ncccc2CNS(=O)(=O)c2cccc(C)c2)c1
1100 | O=C1COc2cc(Cl)ccc2N1Cc1nc(-c2cccc(F)c2)no1
711 | CNC(=O)c1cn2ccnc(-c3ccc(OC)cc3)c2n1
794 | CCc1nnc(-c2ccc3ccn(CC(=O)Nc4ccc5c(c4)OCO5)c3c2)o1
999 | Cc1ccc(Cc2nc(-c3cccc(-c4ccn[nH]4)c3)no2)cc1
623 | CCn1c(-c2ccccc2)nc2ccccc21
630 | O=C(Nc1ccc(N2CCN(C3CCCCC3)C2=O)nc1)c1ccccc1
1260 | CCCN1C(=O)c2cc(S(=O)(=O)N3CCCCC3CC)ccc2Oc2cccnc21 (centres undefined)
731 | Cc1cc(C)cc(NC(=O)N2CCCC(Cn3c(C4CC4)nc4cccnc43)C2)c1 (centres undefined)
785 | COc1cccc(CN2CCc3nc(N4CCN(c5ccccc5F)CC4)ncc3C2)c1
603 | O=C(NCC(c1ccco1)N1CCN(c2ccc(F)cc2)CC1)c1ccsc1 (centres undefined)
989 | CCSc1nnc(-c2nn(C)c3c2CN(S(=O)(=O)c2cccc(Cl)c2)CC3)n1CC
969 | O=C(Nc1ccc(N2CCOCC2)cc1)C1CCCN(c2ncc(-c3cccc(F)c3)cn2)C1 (centres undefined)
1110 | Cc1ccc(C2c3[nH]c4ccccc4c3CCN2C(=O)C2CC2)cc1 (centres undefined)
683 | O=C(O)c1ccc(-c2nnc3ccc(NC(=O)C4CCC4)cn23)cc1
627 | Cc1ccc(C(=O)N2CCCn3cc(-c4ccccc4F)nc32)cn1
567 | Cc1nnc2cc(N3CCN(C(=O)Nc4ccccc4Cl)CC3)cnn12
1060 | Cc1ccc(C)c(N2CCN(c3ccnc(SCC(=O)NCCCc4ccccc4)n3)CC2)c1
935 | CCCn1c(-c2cccc(C(=O)NCCC3=CCCCC3)c2)nc2cccnc21
754 | O=C(NCc1cccc(C(F)(F)F)c1)C1CCN(c2cnc3nccnc3c2)CC1
1110 | CSc1ccc(-c2noc(CN3C(=O)COc4ccccc43)n2)cc1

RP-LC retention time [s] | Structure (SMILES)
1120 | CC(C)c1ccc(NC(=O)Cn2c(=O)cc(-c3nc(C4CC4)no3)c3ccccc32)cc1
807 | Cc1cccc(NC(=O)C2CCCCN2S(=O)(=O)c2cccs2)n1 (centres undefined)
781 | COc1ccc(NC(=O)COc2cc(C)nc(N3CCN(c4ccccc4)CC3)n2)cc1
723 | COc1cc(=O)n2c(c1C(=O)NCCC1=CCCCC1)CCCC2
790 | Cc1cccc(-c2nnc(CC(=O)NCC(C)C)o2)c1
807 | COc1ccc(C)cc1NC(=O)N1CCC2(CC1)NC(=O)c1ccccc1N2C
821 | Cc1ccc2[nH]cc(CCN3CC(C(=O)NCCc4ccc(F)cc4)CC3=O)c2c1 (centres undefined)
640 | Cc1nc(-c2noc(-c3ccncc3)n2)cn1CC(=O)NCc1cccs1
685 | CCNC(=O)C1CCCN(c2nc3ncn(CC(=O)Nc4cc(F)ccc4F)c(=O)c3s2)C1 (centres undefined)
601 | CC(C)CCn1c(CCCC(=O)Nc2ccncc2)nc2cccnc21
681 | COc1ccc(NC(=O)Cn2c(=O)c(CCC(=O)NC3CCCC3)nc3ccccc32)cc1Cl
684 | Cc1ccc2nc(CN3CCN(C(=O)Nc4ccc5c(c4)OCO5)CC3)oc2c1
870 | CCc1nn2c(CNC(=O)c3ccccc3)c(-c3ccccc3)nc2s1
713 | CCCn1c(C2CCN(C(=O)Nc3cccc(C)c3)C2)nc2cccnc21 (centres undefined)
1390 | CCOc1ccc(-n2cc(-c3nc(-c4cccc(OC)c4)no3)c3ccccc3c2=O)cc1
745 | O=C(Nc1cccc2cccnc12)C1CCN(c2ccc(-n3cccn3)nn2)CC1
718 | Cc1nc(NS(=O)(=O)c2ccccc2)sc1C(=O)NCc1c(F)cccc1F
659 | CCCCCn1c(=O)c2ccccc2n(Cc2nc(-c3ccc(Cl)c(F)c3)no2)c1=O
719 | CCCNC(=O)c1ccc2c(=O)n(Cc3ccccc3)c(N3CCCC3)nc2c1
784 | Cc1cccc(N(C)C(=O)CN2C(=O)NC3(CCCCC3)C2=O)c1
932 | CC1(C(=O)NC2CCCCC2)CN(S(=O)(=O)c2ccccc2)CC(=O)N1c1ccccc1F (centres undefined)
818 | CC(NC(=O)c1ccc(C#N)cc1)C(=O)N1CCCc2ccccc21 (centres undefined)

Continued, molecule first:

Structure (SMILES) | RP-LC retention time [s]
Cc1noc([C@@H]2CN(C(=O)c3cc(C)n(Cc4ccco4)c3C)C[C@H]2C(N)=O)n1 | 686
Cc1cc(NC(=O)C2CCN(C(=O)COc3ccccc3F)CC2)no1 | 696
COc1ccc(NC(=O)Nc2nccn(-c3ccc(Cl)cc3)c2=O)cc1OC | 854
Cc1cc(NC(=O)c2ccco2)c2cc(F)cc(F)c2n1 | 668
COC(=O)c1ccc(NC(=O)C(=O)NCC2CCN(S(C)(=O)=O)CC2)cc1 | 828
CC(C)c1ccc(NC(=O)c2cc3sc(Cl)cc3n2C)cc1 | 1300
COc1ccc(N2CCN(c3nc(C(=O)N4CCCC4)cs3)CC2)cc1 | 853
Cc1noc(-c2nn(C)c3c2CN(C(=O)NC(C)(C)C)CC3)n1 | 680
O=C(Cn1cccc1-c1nnc(C2CCC2)o1)N1CCN(Cc2ccc3c(c2)OCO3)CC1 | 688
CN(C)c1ccc(Nc2nc(-c3ccc(O)cc3O)cs2)cc1 | 850
Cc1cnc(-n2nnc(C(=O)N3CCN(C(=O)c4ccco4)CC3)c2C)s1 | 687
CCn1nc2ccc(S(=O)(=O)N3CCC(C)CC3)cn2c1=O | 827
Nc1cc(C2CCN(S(=O)(=O)Cc3cccc(F)c3)CC2)no1 | 742
COc1ccc(N2CCN(S(=O)(=O)c3cc(-c4nc(C)cs4)cs3)CC2)cc1 | 1070
O=C(Cc1nnc2c(-c3nc(C4CC4)no3)cccn12)NC1CCCC1 | 661
CCn1cc(C(=O)NCc2ccc3c(c2)OCO3)c2cccnc21 | 755
O=C(Cn1cnc2c(sc3nc(-c4ccccc4)ccc32)c1=O)Nc1ccc(Br)cc1 | 1120
Cn1ccc2cc(S(=O)(=O)N3CCCC(C(=O)NC4CCCCCC4)C3)ccc21 (centres undefined) | 1010
CC1=C2C3OC(=O)C(C)C3CCC2(C)C=C(Cl)C1=O (centres undefined) | 914
CN(c1cccc(Cl)c1)S(=O)(=O)c1cc2n(c1)CCCNC2=O | 726
Cc1cc(C)c2nc(C)cc(C(=O)NCc3ccc(C)o3)c2c1 | 735
COc1cc(OC)c(NC(=O)C2CCN(S(=O)(=O)c3cn(C(C)C)cn3)CC2)cc1Cl | 814
O=C(NCc1ccc2c(c1)OCO2)C(=O)Nc1ccon1 | 655

Structure (SMILES) | RP-LC retention time [s]
CCOCCCNC(=O)C1Cn2cccc2C(=O)N1C (centres undefined) | 597
O=C(O)CN1CCCc2c(cnn2Cc2ccccc2)C1=O | 656
Cc1noc(C)c1-c1ccc(S(=O)(=O)NC2CCC(C)CC2)cc1 (centres undefined) | 1030
COc1cc(-c2nc3cccc(C)n3c2Nc2ccc3c(c2)OCCO3)ccc1O | 634
CCSCCOC(=O)C1=C(C)NC2=C(C(=O)CCC2)C1c1ccccc1OC (centres undefined) | 727
COc1ccc2[nH]cc(CN3CCC([C@H]4[C@@H](OC)C(=O)N4C(C)C)CC3)c2c1 | 623
CCN1CCCC1CNC(=O)C1CCN(S(=O)(=O)c2ccc3c(c2)sc(=O)n3C)CC1 (centres undefined) | 794
COc1cc(S(=O)(=O)NCc2ccccc2)c(OC)cc1Br | 867
CS(=O)(=O)c1ccc2nc(NC(=O)c3ccc([N+](=O)[O-])o3)sc2c1 | 679
Cc1ccc(NS(=O)(=O)c2cc(-c3[nH]ncc3C(=O)N(C)C)oc2C)c(F)c1 | 678
O=C(Cc1cccc(Cl)c1)Nc1ccsc1-c1nnc(C2CC2)o1 | 1240
COC(=O)CNC(=O)N1CCC2(CC1)Nc1cc(F)ccc1-n1cccc12 | 816
Nc1nc(Nc2ccc3c(c2)CC[C@@H](N2CCCC2)CC3)nn1-c1cc2c(nn1)-c1ccccc1CCC2 | 760
O=C(c1cc2c(s1)CCC(C(=O)N1CCN(c3ccccn3)CC1)C2)N1CCCCC1 (centres undefined) | 621
O=c1c2cc(-c3ccc(F)cc3)nn2cnn1Cc1nc(-c2ccc3c(c2)OCO3)no1 | 1220
COc1ccc(OC)c(NC(=O)CN2CC(C)Sc3ccccc32)c1 (centres undefined) | 1080
CS(=O)(=O)N1CCC(C(=O)Nc2ccc(C(F)(F)F)cc2)Oc2ccc(Cl)cc21 (centres undefined) | 1060
Cc1c(C(=O)N2CCCC(C)C2)cnn1-c1ccc(-c2nc(C(C)C)no2)cn1 (centres undefined) | 1120
Cc1ccc(-c2nnc(-c3nn(C)c4c3CN(S(=O)(=O)c3ccc(Cl)s3)CC4)o2)cc1 | 1060
CCN(CC)CCNC(=O)COc1ccc(Cl)cc1 | 694
Cc1cccc2nnc(N3CCC(C(=O)N4CCOCC4)CC3)n12 | 568
COCCNC(=O)Nc1nnc(-c2ccccc2Cl)o1 | 647
